Test results taken from US8148424B2, “Tocopherols, tocotrienols, other chroman and side chain derivatives and uses thereof” (Research Development Foundation, priority 1998, dated 2012).
Like-named read-outs stand apart in the source and are kept apart here.

Columns and labels:
A-549 = assay: Bioassay for apoptosis (apoptotic EC50); type: cell-based, human
Description: (§1) Cells were cultured at 1.5×10^5 cells/well in 12 well plates. Cells were allowed to adhere overnight, then incubated with novel test compounds at 0.01, 0.1, 1, 5, 10 & 20 μg/mL for 1, 2 and 3 days. After treatment, cells (floating+trypsin released adherent cells) were pelleted, washed and stained with 2 μg/ml DAPI (4′,6-diamidine-2′-phenylindole dihydrochloride) in 100% methanol for 15 minutes at 37° C. and/or 3′-OH ends resulting from DNA fragmentation were detected with the TUNEL (terminal deoxynucleotidyl transferase-mediated dUTP-X 3′ nick end-labeling) technique, and then viewed using a Zeiss ICM 405 microscope. Cells whose nucleus contained clearly condensed or fragmented chromatin or stained for fragmented DNA in the TUNEL assay were scored as apoptotic. Data are presented as percent cells undergoing apoptosis.

C-170 = assay: Bioassay for apoptosis (apoptotic EC50); type: cell-based, human; settings: Homo sapiens, C170, C-170; unit inferred
Description: as §1

HL-60 = assay: Bioassay for apoptosis (apoptotic EC50); type: cell-based, human
Description: as §1

HT-29 = assay: Bioassay for apoptosis (apoptotic EC50); type: cell-based, human
Description: as §1

Jurkat = assay: Bioassay for apoptosis (apoptotic EC50); type: cell-based, human
Description: as §1

MCF-7 = assay: Bioassay for apoptosis (apoptotic EC50); type: cell-based, human
Description: as §1

MDA-MB-435 = assay: Bioassay for apoptosis (apoptotic EC50); type: cell-based, human
Description: as §1

ME-180 = assay: Bioassay for apoptosis (apoptotic EC50); type: cell-based, human
Description: as §1

PREC = assay: Bioassay for apoptosis (apoptotic EC50); type: cell-based; settings: Homo sapiens, unit inferred
Description: as §1

MCF-7 cells [1] = assay: DNA synthesis arrest by 3H-uptake (Example 8); type: cell-based, human; settings: 3H-uptake at one day treatment
Description: (§2) MDA-MB-435 and MCF-7 cells at 1.5×10^5/well in 12 well plates for apoptosis and 1.5×10^4/well in 96 well plates for DNA synthesis arrest were incubated overnight in culture media and treated with α-tocopherol, α-tocotrinel, compound 1, 6-0-carboxymethyl alpha-tocotrienol (6-0-CM-α-T, 44), and vitamin E succinate (VES) at different concentrations in experimental media (2% serum for MDA-MB-435 cells and 5% serum for MCF-7 cells). DNA synthesis arrest was determined by ^3H-uptake at one day treatment and apoptosis was detected by DAPI staining at three day treatment. EC50 was calculated as the dosage of test compounds that gave 50% growth inhibition.

MDA-MB-435 cells [2] = assay: DNA synthesis arrest by 3H-uptake (Example 8); type: cell-based, human; settings: for EC50: MDA-MB-435, 2% serum, 3H-uptake at one day treatment
Description: as §2

MCF-7 cells [3] = assay: Apoptosis by DAPI staining (Example 8); type: cell-based, human; settings: 5% serum, DAPI staining at three day treatment
Description: as §2

MDA-MB-435 cells [4] = assay: Apoptosis by DAPI staining (Example 8); type: cell-based, human; settings: for EC50: MDA-MB-435, 2% serum, DAPI staining at three day treatment
Description: as §2

DLD-1 = assay: Bioassay for apoptosis (apoptotic EC50); type: cell-based, human; settings: unit not given, in µg/mL
Description: as §1

DU-145 = assay: Bioassay for apoptosis (apoptotic EC50); type: cell-based, human; settings: unit not given, in µg/mL
Description: as §1

LnCaP = assay: Bioassay for apoptosis (apoptotic EC50); type: cell-based, human; settings: unit not given, in µg/mL
Description: as §1

MDA-MB-231 = assay: Bioassay for apoptosis (apoptotic EC50); type: cell-based, human; settings: MDA-MB-231; unit not given; in µg/mL
Description: as §1

Myeloma = assay: Bioassay for apoptosis (apoptotic EC50); type: cell-based, human; settings: unit not given
Description: as §1

PC-3 = assay: Bioassay for apoptosis (apoptotic EC50); type: cell-based, human; settings: PC-3; unit not given; in µg/mL
Description: as §1

RL-95-2 = assay: Bioassay for apoptosis (apoptotic EC50); type: cell-based, human; settings: RL-95-2; unit not given; in µg/mL
Description: as §1

Raji = assay: Bioassay for apoptosis (apoptotic EC50); type: cell-based, human; settings: unit not given
Description: as §1

Ramos = assay: Bioassay for apoptosis (apoptotic EC50); type: cell-based, human; settings: unit not given
Description: as §1

[5] = system: breast tumor cell line MDA-MB-435; assay: Bioassay for DNA synthesis arrest, naturally occurring vitamin E compounds; type: cell-based, human; settings: Table 1
Description: Table 1 provides tumor growth inhibitory properties of naturally occurring vitamin E compounds against the breast tumor cell line MDA-MB-435.
To assay DNA synthesis, all cells were used at 2.5×10^5/ml. Cells were treated with each of the compounds at concentrations of 0.01, 0.1, 1, 5, 10 and 20 μg/mL and 200 μl of each treatment group were plated in quadruplicate in a 96 well culture plate (Corning, Corning N.Y.). Experiments were done in duplicate, one plate used for viability testing and the other plate for examination of ^3H-TdR uptake to monitor DNA synthesis. Plates were cultured for 48 hours at 37° C., 5% CO2. Eight hours prior to the end of incubation, ^3H-TdR was added to one of the duplicate plates and incubation continued for 8 hours.
The cells were then harvested (trypsinization was required to harvest adherent cells), and isotope uptake was determined as counts per minute (cpm). For viability studies, at the end of the incubation, the cells were removed from the wells and viability checked by the Trypan Blue Exclusion method. Percent viability and percent DNA synthesis in comparison to untreated or vehicle treated cells of each treatment group were calculated.

[6] = MDA-MB-435, Table 1, read-out: EC50 for Apoptosis

`CC(C)=CCC/C(C)=C/C=C/C(C)=C/[C@]1(C)CCc2c(C)c(OCC(=O)O)c(C)c(C)c2O1` [Compound 18] was tested, and the EC50 (A-549; Homo sapiens, A549, unit inferred) was > 20 µg/mL, the EC50 (C-170) was > 20 µg/mL and the EC50 (HL-60; Homo sapiens, HL-60, HL-60, unit inferred) was > 20 µg/mL. The EC50 (HT-29; Homo sapiens, unit inferred) was > 20 µg/mL, the EC50 (Jurkat; Homo sapiens, unit inferred) was > 20 µg/mL and the EC50 (MCF-7; Homo sapiens, MCF7, MCF-7, unit inferred) was > 20 µg/mL. For the same compound, the EC50 (MDA-MB-435; Homo sapiens, MDA-MB-435, MDA-MB-435, unit inferred, read-out: apoptotic EC50) was > 20 µg/mL, the EC50 (ME-180; Homo sapiens, ME-180, ME-180, unit inferred) was > 20 µg/mL and the EC50 (PREC) was > 20 µg/mL.

With `CC(C)=CCC/C(C)=C/CC/C(C)=C/CC[C@]1(C)CCc2c(C)c(OCC(=O)O)c(C)c(C)c2O1` [Compound 44] the EC50 (MCF-7 cells [1]; Homo sapiens, MCF7, 5% serum) was 5 µM, the EC50 (MDA-MB-435 cells [2]; Homo sapiens) was 2.5 µM and the “antitumor activity (DNA synthesis arrest) higher than alpha-tocotrienol” value (MDA-MB-435 cells [2]; MDA-MB-435 and MCF-7) was 8-12 fold. The “antitumor activity (DNA synthesis arrest) higher than compound 1” value (MDA-MB-435 cells [2]; MDA-MB-435 and MCF-7) was 4-6 fold, the “antitumor activity (DNA synthesis arrest) higher than vitamin E succinate” value (MDA-MB-435 cells [2]; MDA-MB-435 and MCF-7) was 4-7 fold and the EC50 (MCF-7 cells [3]; Homo sapiens, MCF7, 72 h) was 10 µM. The EC50 (MDA-MB-435 cells [4]; Homo sapiens, 72 h) was 5.6 µM, the “induction of apoptosis higher than alpha tocotrienol” value (MDA-MB-435 cells [4]; MDA-MB-435 and MCF-7) was 4-12 fold and the “induction of apoptosis higher than compound 1” value (MDA-MB-435 cells [4]; MDA-MB-435 and MCF-7) was 4-5 fold. The “induction of apoptosis higher than vitamin E succinate” value (MDA-MB-435 cells [4]; MDA-MB-435 and MCF-7) was 4-6 fold.

In the case of `Cc1c(C)c2c(c(C)c1OC(=O)CCC(=O)O)CC[C@@](C)(CCC[C@H](C)CCC[C@H](C)CCCC(C)C)O2` [VES, RRR-α-tocopherol succinate, reference compound], the “apoptotic EC50” value (A-549; unit not given, in µg/mL) is reported as 20-30, the “apoptotic EC50” value (DLD-1) is reported as 10-20 and the “apoptotic EC50” value (DU-145) is reported as 10-20. For the same compound, the “apoptotic EC50” value (HL-60; HL-60, unit not given, in µg/mL) was 10-20, the “apoptotic EC50” value (HT-29; unit not given, in µg/mL) was 5-10 and the “apoptotic EC50” value (Jurkat; unit not given, in µg/mL) was 10-20. The “apoptotic EC50” value (LnCaP) was 5-10, the “apoptotic EC50” value (MCF-7; MCF-7, unit not given, in µg/mL) was 10-20 and the “apoptotic EC50” value (MDA-MB-231) was 5-10. The “apoptotic EC50” value (MDA-MB-435; MDA-MB-435, unit not given, in µg/mL) was 5-10, the “apoptotic EC50” value (ME-180; ME-180, unit not given, in µg/mL) was 10-20 and the “apoptotic EC50” value (Myeloma) was 10-20. For the same compound, the “apoptotic EC50” value (PC-3) was 10-20, the “apoptotic EC50” value (RL-95-2) was 10-20 and the “apoptotic EC50” value (Raji) was 10-20. The “apoptotic EC50” value (Ramos) was 10-20, the EC50 (MCF-7 cells [1]; 5% serum) was 22 µM and the EC50 (MDA-MB-435 cells [2]) was 17 µM. It also gave an EC50 (MCF-7 cells [3]) of 40 µM and an EC50 (MDA-MB-435 cells [4]) of 36 µM.

For `Cc1c(C)c2c(c(C)c1O)CC[C@@](C)(CCC[C@H](C)CCC[C@H](C)CCCC(C)C)O2` [α-tocopherol, RRR-α-tocopherol, reference compound], the EC50 (MDA-MB-435; [6]) was > 400 µM, the EC50 [5] was > 400 µM and the EC50 (MCF-7 cells [1]; 5% serum) was > 100 µM. The EC50 (MDA-MB-435 cells [2]) was > 100 µM, the EC50 (MCF-7 cells [3]) was > 100 µM and the EC50 (MDA-MB-435 cells [4]) was > 100 µM.

In the case of α-tocotrienol [reference compound], the EC50 (MDA-MB-435; [6]) is reported as 50 µM, the EC50 [5] is reported as 40 µM and the EC50 (MCF-7 cells [1]; 5% serum) is reported as 40 µM. It also gave an EC50 (MDA-MB-435 cells [2]) of 29 µM, an EC50 (MCF-7 cells [3]) of 40 µM and an EC50 (MDA-MB-435 cells [4]) of 66 µM.
